Reference: patent US8143250B2, “6-7,dialkoxy quinazoline derivatives useful for treatment of cancer related disorders” (priority 2008, dated 2012)
“Also recorded” adds a separate entry of the source. Counter-ions that a name gives are not always drawn. Like-named read-outs stand apart in the source and are kept apart here.

Columns and labels:
VEGFR = assay: Western blot of receptor levels in A549 cells: VEGFR; format: cell-based, human
Procedure: (§1) Levels of Erb-1, Erb-2, Erb-3, Erb-4 and VEGFR were determined by western blot analysis.

A549 cells [1] = assay: In vivo evaluation on subcutaneous lung tumours in nude mice; conditions: for tumour regression: subcutaneous A549 tumours
Excerpt: Nude mice were implanted with 2×10^6 A549 cells in the right hind limb flank.

A549 and H1299 cells = assay: cells; conditions: Homo sapiens, read-out: inhibiting concentration (IC50)
Procedure: Solubilization of the cells by the addition of a detergent results in the liberation of the crystals, which are solubilized. The number of surviving cells is directly proportional to the level of the formazan product created. The color can then be quantified using a simple colorimetric assay. This assay was done using 0-1000 ng/ml concentrations of Erlotinib and the test compounds in A549 and H1299 cells.

Erb B4 = assay: Western blot of receptor levels in A549 cells: Erb B4; format: cell-based, human
Procedure: as §1

Erb B2 = assay: Western blot of receptor levels in A549 cells: Erb B2; format: cell-based, human
Procedure: as §1

A549 cells [2] = assay: Evaluation of ED50 from lung section and tumor regression studies; format: in vivo, nude mice; conditions: oral route, based on lung section and tumor regression studies
Procedure: The ED50 values were evaluated based on the lung section and tumor regression studies. […].

[3] = tested on: A549 luciferase expressing cells; assay: Nude mice implanted with A549 luciferase expressing cells, tumor observation; format: in vivo; conditions: 42 days treatment, oral and ip routes
male and female mice = assay: Acute toxicity (LD0, LD50) in mice; format: in vivo; conditions: single oral dose; for LD50: Litchfield and Wilcoxon; for LD0: no mortality at end of 7 days
Procedure: The doses 500, 750, 1000 and 2000 mg/Kg were administered orally. Each group consists of 5 mice. […] The survived animals were autopsied for asserting the absorption of compound through g.i.t.
The LD50 was determined using Litchfield and Wilcoxon (J. Pharmacol. Exp. Ther. 1949, 96: 99-113).

[4] = tested on: A549 luciferase expressing cells; assay: Evaluation of lung tissue harvested from nude mice after treatment; format: in vivo; conditions: various concentrations, oral/ip routes
Erb B3 = assay: Western blot of receptor levels in A549 cells: Erb B3; format: cell-based, human
Procedure: as §1

EGFR = target: T1, EGFR (Homo sapiens, UniProt P00533); assay: Western blot analysis of EGFR expression; format: cell-based; conditions: for concentration causing comparable inhibition of EGFR expression: H1299 or A549 cells, 72 hr
T1 construct: endogenous in cells; host or cells: H1299 or A549 cells
Excerpt: The gels were blotted onto treated nylon membranes (Biorad) and immunoprobed for EGFR, P13K and AKT.

H1299 and A549 cells = assay: Matrigel invasion assay (modified Boyden chamber); format: cell-based, human; conditions: cells treated 48 hr, migration 24 h
Procedure: The in vitro invasiveness of H1299 and A549 cells in the presence of various concentrations of NRC compounds (as determined by MTT assay) was assessed using a modified Boyden chamber assay. Cells were treated with these compounds for 48 hr. 1×10^6 cells were suspended in 600 μl of serum-free medium supplemented with 0.2% BSA and placed in the upper compartment of the transwell chambers (Corning Costar Fisher Scientific cat #07-200-158, Pittsburgh Pa.) coated with matrigel (0.7 mg/ml). The lower compartment of the chamber was filled with 200 μl of serum medium and the cells were allowed to migrate for 24 h. after incubation, the cells were fixed and stained with Hema-3 and quantified as previously described (Mohanam et al. 1993). The migrated cells were quantified as percent invasion.

A549 cells [5] = assay: Visualization of tumors in lung tissue (H&E sections); format: in vivo, nude mice; conditions: intrapulmonary A549, 2.5 and 20 mg/Kg, oral/ip, thirty days daily treatment
Excerpt: Nude mice were implanted by intrapulmonary injections of A549 cells. […] Thirty days after daily drug treatments, mice were sacrificed and lungs harvested. The lung tissues were fixed in 10% buffered formaldehyde, paraffin embedded and sectioned. The sections were H&E stained as per statutory protocols to visualize solid or diffuse tumors.

Row | Compound | VEGFR level (VEGFR) | Erb B4 level (Erb B4) | Erb B2 level (Erb B2) | tumors at end of treatment [3] | LD50 (male and female mice) | LD0 (male and female mice) | residual tumours in harvested lungs [4] | Erb B3 level (Erb B3) | further results
1 | C#Cc1cccc(Nc2ncnc3cc(OCCOC)c(OCCOC)cc23)c1 [Erlotinib HCl, N-(3-Ethylnylphenyl)-6,7-bis(2-methoxyethoxy)-4-quinazolinamine, reference compound] | not seen at all; also recorded: no such indication was seen | not seen at all; also recorded: no such indication was seen | not seen at all; also recorded: no such indication was seen | residual tumors were still present | 805 mg/kg (po) | 500 mg/kg (po) | tumours were still present | not seen at all; also recorded: no such indication was seen | tumour regression (A549 cells [1]; 100 mg/Kg dose): could not induce complete tumor regression; also recorded: tumours were still present; IC50 (A549 and H1299 cells): 0.836 µg/mL; ED50 (A549 cells [2]; Mus musculus, A549, read-out: ED50): 22 mg/kg
2 | C#Cc1cccc(Nc2ncnc3cc(OC)c(OCCCN4CCOCC4)cc23)c1 [NRC-2694, N-(3-ethylnylphenyl)-7-methoxy-6-[3-(4-morpholinyl)propoxy]-4-quinazolinamine] | down regulating | down regulating | down regulating | No tumors were observed | could not be pinpointed | 2000 mg/kg (po) | Complete regression of tumours | down regulating | VEGFR level (VEGFR; listed as NRC 2694): down regulated; tumour regression (A549 cells [1]; 10 mg/Kg dose): complete regression of tumours; superiority in efficacy versus erlotinib HCl (A549 cells [1]; 10 mg/Kg versus 100 mg/Kg): ten fold; Erb B4 level (Erb B4; listed as NRC 2694): down regulated; Erb B2 level (Erb B2; listed as NRC 2694): down regulated; ED50 (A549 cells [2]): 6.3 mg/kg; level of efficacy versus erlotinib HCl (EGFR expression) (EGFR; 80 ng versus 800 ng): ten fold; concentration causing comparable inhibition of EGFR expression (EGFR): 80 ng; concentration causing comparable inhibition of EGFR expression (EGFR; value in parentheses): 190 nm; invasion (H1299 and A549 cells): significant decrease in invasion in a dose dependent manner; Erb B3 level (Erb B3; listed as NRC 2694): down regulated; tumors in lung tissue sections, comparison with erlotinib HCl (A549 cells [5]): fared much better
